Laboratory results published in patent publication US20070037887A1, “Blockade of mtor to prevent a hormonal adaptive response” (University of Virginia Patent Foundation, priority 2003, published 2007).

Molecular target: T1, mTOR-mLST8 (Homo sapiens, UniProt P42345+Q9BVC4)
T1 construct: expressed in transfected cells; host or cells: 293T
Assay: Coimmunoprecipitation of mLST8 with mTOR from 293T cells incubated with compound
Type: cell-based
Settings: nontransfected 293T cells; much less pronounced than effect on raptor
Procedure: FIG. 11A & 11B represent data showing FTS inhibits PHAS-I phosphorylation and promotes dissociation of the mTOR-raptor complex in 293T cells. 293T cells were transfected with pcDNA3AU1-mTOR, pcDNA33HARaptor, pcDNA33HA-mLST8, and pCMV-Tag3APHAS-I (FIG. 11A). After 18 h the cells were incubated for 1 h with increasing concentrations of FTS before extracts were prepared. A sample of each extract was subjected to SDS-PAGE and immunoblotted to detect PHAS-I or PThr^36/45. AU1-mTOR was also immunoprecipitated from each extract, and immune complexes were subjected to SDSPAGE and immunoblotted with mTAb2, to detect mTOR, and with anti-HA antibodies, to detect HA-mLST8 and HA-raptor. Nontransfected 293T cells were incubated with increasing concentrations of FTS for 1 h before extracts were prepared. mTOR was immunoprecipitated with mTAb1, and samples were subjected to SDS-PAGE.
FIGS. 12A & 12B represent data showing the effects of incubating cells with increasing concentrations of FTS and GTS on mTOR activity and mTOR association with raptor and mLST8. AU1-mTOR, HA-raptor, and HAmLST8 were overexpressed in 293T cells. The cells were then incubated for 1 h with increasing concentrations of FTS (●, ▴, ▪) or GTS (∘, Δ, □) before extracts were prepared. Immunoprecipitations were then conducted with anti-AU1 antibodies. mTOR kinase activity (●, ∘) was determined by measuring ^32P incorporation into [His^6]PHAS-I in immune complex kinases assays performed with [γ-^32P]ATP. The relative amounts of HA-raptor (▴, Δ) and HA-mLST8 (▪, □) that coimmunoprecipitated with AU1-mTOR were determined after immunoblotting with anti-HA antibodies. The results (mean values±S.E. from 3 experiments) are expressed as percentages of the mTOR activity (FIG. 12A) or coimmunoprecipitating proteins (FIG. 12B) from samples incubated without FTS or GTS, and have been corrected for the amounts of AU1-mTOR immunoprecipitated.
To investigate further the inhibitory effects of FTS on mTOR signaling, the effect of the drug on the association of mTOR, raptor, and mLST8 was determined. […]

T1 sequence (Q9BVC4 whole entry, other chains not shown): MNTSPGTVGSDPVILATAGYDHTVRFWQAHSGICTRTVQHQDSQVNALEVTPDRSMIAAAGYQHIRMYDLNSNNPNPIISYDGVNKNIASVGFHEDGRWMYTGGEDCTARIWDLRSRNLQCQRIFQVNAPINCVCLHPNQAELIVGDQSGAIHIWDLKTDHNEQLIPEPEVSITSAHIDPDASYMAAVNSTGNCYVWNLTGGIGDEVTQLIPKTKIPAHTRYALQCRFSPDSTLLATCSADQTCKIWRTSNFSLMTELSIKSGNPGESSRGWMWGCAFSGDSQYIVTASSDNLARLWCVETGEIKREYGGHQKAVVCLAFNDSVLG

CC(C)=CCC/C(C)=C/CC/C(C)=C/CSc1ccccc1C(=O)O [FTS, farnesylthiosalicylic acid]
amount of endogenous mLST8 that coimmunoprecipitated with mTOR: also decreased
